ChEMBL document CHEMBL5380844, “Discovery of a Novel, Potent, Orally Active, and Safe Inhibitor Targeting Human Mitochondrial RNA Polymerase” (J Med Chem, 2023)
The source made the active and inactive calls. No cut-off for these calls is given here.

What was measured:
A2780 [1] = assay: Antiproliferative activity against human A2780 cells incubated for 168 hrs by SRB method; type: functional, cell-based; details: A2780, 168 h
HeLa = assay: Antiproliferative activity against human HeLa cells incubated for 168 hrs by SRB method; type: functional, cell-based
A2780 [2] = assay: Induction of apoptosis in human A2780 cells assessed as late apoptotic cells at 50 nM incubated for 96 hrs by Annexin-V/FITC and PI staining based flow cytometry analysis (reference value: 3.79%); type: functional
A2780 [3] = assay: Inhibition of colony formation in human A2780 cells assessed as reduction in number of colonies at upto 500 nM incubated for 14 days by crystal violet staining based analysis; type: functional, cell-based; details: time 14.0 day
A2780 [4] = assay: Inhibition of MT-ND6 expression in human A2780 cells at 100 nM incubated for 12 hrs by RNA sequencing analysis; type: functional, cell-based
A2780 [5] = assay: Antitumor activity against human A2780 cells xenografted in BALB/c nude mouse model assessed as reduction in beta-actin level at 100 mg/kg, po by immunoblotting analysis; type: functional, organism-based
A2780 [6] = assay: Effect on 5S mRNA level in human A2780 cells by RT-qPCR analysis; type: functional, cell-based
[7] = Toxicity in Balb/c mouse assessed as effect on lung at 100 mg/kg by H and E staining based analysis; type: organism-based; details: in vivo

Work on `Cc1ccc(-c2cc(=O)oc3cc(O[C@H](C)C(=O)N4CC5CCC(C4)N5C)ccc23)c(C)c1` yielded an IC50 (A2780 [1]) of 68 nM, an IC50 (HeLa) of 832 nM and an Activity (A2780 [2]) of 3.17%. The inhibition (A2780 [3]) was “Active”, the inhibition (A2780 [4]) was “Active” and the Activity (A2780 [5]) was “Active”. For the same compound, the Activity (A2780 [6]) was “inactive” and the Activity [7] was “Non-Toxic”.
